Results from US20090274773A1, “ANTIPROLIFERATIVE COMBINATION COMPRISING CYC-682 AND A CYTOTOXIC AGENT” (Cyclacel Limited, priority 2005, published 2009).
Read-outs that look alike come from different tables or passages of the source.

Experiments:
[1] = tested on: panel of human cancer cell lines; assay: Antiproliferative effects as single agent in a panel of human cancer cell lines (MTT); assay type: cell-based
Method: The MTT assay was carried out as described previously (Hansen M B, Nielsen S E, Berg K. Re-examination and further development of a precise and rapid dye method for measuring cell growth/cell kill. J Immunol Methods. 1989 May 12; 119(2):203-10). In brief, cells were seeded in 96-well tissue culture plates at a density of 2×10^3 cells/well. Cell viability was determined after a 120-hour incubation, by the calorimetric conversion of yellow, water-soluble tetrazolium MTT (3-[4,5-dimethylthiazol-2-yl]-2,5-diphenyltetrazolium bromide; Sigma, Saint-Quentin Fallavier, France), into purple, water-insoluble formazan. This reaction is catalyzed by mitochondrial dehydrogenases and is used to estimate the relative number of viable cells (Mosmann, T, Rapid calorimetric assay for cellular growth and survival: application to proliferation and cytotoxicity assays. J Immunol Methods. 1983 Dec. 16; 65 (1-2):55-63). Cells were incubated with 0.4 mg/ml MTT for 4 hours at 37° C. After incubation, the supernatant was discarded, the cell pellet was resuspended in 0.1 ml of DMSO and the absorbance was measured at 560 nm using a microplate reader (Dynatech, Michigan). […]
The cells were seeded at 2×10^3 cells/well in 96-well plates and treated 24 hours later with increasing concentrations of CYC682. […] Growth inhibition was then determined by the MTT assay. […]

[2] = tested on: HT29; assay: MTT growth inhibition assay, single agent; assay type: cell-based, human; conditions: Homo sapiens, read-out: Antiproliferative effects IC50s (MTT assay)
Method: (§1) All cell lines were obtained from the ATCC (Rockville, Md.). Cells were grown as monolayers in RPMI medium supplemented with 10% fetal calf serum (Invitrogen, Cergy-Pontoise, France), 2 mM glutamine, 100 units/ml penicillin and 100 μg/ml streptomycin. All cells were split twice a week using trypsin/EDTA (0.25% and 0.02%, respectively; Invitrogen, Cergy-Pontoise, France) and seeded at a concentration of 2.5×10^4 cells/ml. All cell lines were tested regularly for Mycoplasma contamination by PCR using a Stratagene kit (La Jolla, Calif.).
(§2) The MTT assay was carried out as described previously (Hansen M B, Nielsen S E, Berg K. Re-examination and further development of a precise and rapid dye method for measuring cell growth/cell kill. J Immunol Methods. 1989 May 12; 119(2):203-10). In brief, cells were seeded in 96-well tissue culture plates at a density of 2×10^3 cells/well. Cell viability was determined after a 120-hour incubation, by the calorimetric conversion of yellow, water-soluble tetrazolium MTT (3-[4,5-dimethylthiazol-2-yl]-2,5-diphenyltetrazolium bromide; Sigma, Saint-Quentin Fallavier, France), into purple, water-insoluble formazan. This reaction is catalyzed by mitochondrial dehydrogenases and is used to estimate the relative number of viable cells (Mosmann, T, Rapid calorimetric assay for cellular growth and survival: application to proliferation and cytotoxicity assays. J Immunol Methods. 1983 Dec. 16; 65 (1-2):55-63). Cells were incubated with 0.4 mg/ml MTT for 4 hours at 37° C. After incubation, the supernatant was discarded, the cell pellet was resuspended in 0.1 ml of DMSO and the absorbance was measured at 560 nm using a microplate reader (Dynatech, Michigan). Wells with untreated cells or with drug-containing medium without cells were used as positive and negative controls, respectively. Growth inhibition curves were plotted as a percentage of untreated control cells.
(§3) The cells were seeded at 2×10^3 cells/well in 96-well plates and treated 24 hours later with increasing concentrations of CYC682. After incubation times of 1 hour, 24 hours or 48 hours, the cells were washed and post-incubated in drug-free medium for 72 hours. Growth inhibition was then determined by the MTT assay.

[3] = tested on: IGROV1; assay: MTT growth inhibition assay, single agent; assay type: cell-based, human; conditions: Homo sapiens, read-out: Antiproliferative effects IC50s (MTT assay)
Method: as §1, §2, §3

[4] = tested on: COLO205; assay: MTT growth inhibition assay, single agent; assay type: cell-based, human; conditions: Homo sapiens, read-out: Antiproliferative effects IC50s (MTT assay)
Method: as §1, §2, §3

[5] = tested on: MCF7; assay: MTT growth inhibition assay, single agent; assay type: cell-based, human; conditions: Homo sapiens, read-out: Antiproliferative effects IC50s (MTT assay)
Method: as §1, §2, §3

[6] = tested on: HOP92; assay: MTT growth inhibition assay, single agent; assay type: cell-based, human; conditions: Homo sapiens, read-out: Antiproliferative effects IC50s (MTT assay)
Method: as §1, §2, §3

[7] = tested on: HCT116; assay: MTT growth inhibition assay, single agent; assay type: cell-based, human; conditions: Homo sapiens, read-out: Antiproliferative effects IC50s (MTT assay)
Method: as §1, §2, §3

[8] = tested on: HCC2998; assay: MTT growth inhibition assay, single agent; assay type: cell-based, human; conditions: Homo sapiens, read-out: Antiproliferative effects IC50s (MTT assay)
Method: as §1, §2, §3

[9] = tested on: OVCAR1; assay: MTT growth inhibition assay, single agent; assay type: cell-based, human; conditions: Homo sapiens, read-out: Antiproliferative effects IC50s (MTT assay)
Method: as §1, §2, §3

[10] = tested on: MDA-MB-435; assay: MTT growth inhibition assay, single agent; assay type: cell-based, human; conditions: Homo sapiens, read-out: Antiproliferative effects IC50s (MTT assay)
Method: as §1, §2, §3

[11] = tested on: HOP62; assay: MTT growth inhibition assay, single agent; assay type: cell-based, human; conditions: Homo sapiens, read-out: Antiproliferative effects IC50s (MTT assay)
Method: as §1, §2, §3

[12] = tested on: colon cancer; conditions: cited from earlier work
[13] = phase I, patients with a variety of cancers; cited from earlier work
[14] = tested on: NSCLC cell line H1299; assay: CNDAC combinations (alamar blue, Calcusyn Combination Index); assay type: cell-based, human
Method: Experiments in the NSCLC cell lines H1299 or RERF-LC-MA were performed in 96-well plates, with cells seeded at a density of 3,000/well, in DMEM containing 10% (v/v) FCS. Stock solutions of all drugs were made up in dimethylsulfoxide (DMSO), with the exception of gemcitabine, which was dissolved in 0.9% (w/v) sterile saline solution.
For experimental assessment of potential synergistic interactions, the concomitant treatment regime involved simultaneous treatment of cells with CNDAC and the other agent under investigation for 72 h, alongside suitable controls of cells treated with the individual compounds alone for 72 hr. In the sequential treatment regimes, one drug was added to the cells 2 h after plating, and left for 24 h. Media was then aspirated, replaced with fresh media containing the second drug and incubated for 72 h. The two individual treatment controls for the sequential treatment regime involved substituting one of the drug treatments with drug-free media. […] Drug interactions were analysed using the Calcusyn software package (BioSoft, Cambridge, U.K.) described below.

[15] = tested on: HCT116 cancer cell line; assay: CYC682 drug-combination study (MTT, Chou and Talalay combination index, isobolograms); assay type: cell-based, human; conditions: HCT116; named agent given prior to CYC682
Method: (§4) For simultaneous drug exposure, cells were seeded at 2×10^3 cells/well in 96-well plates and treated 24 hours later with increasing concentrations of CYC682 alone or with various concentrations of another drug corresponding to the IC20, IC40 or IC60 values. After approximately four doubling times (120 hours), the growth inhibitory effect was measured by the MTT assay.
(§5) Cells were seeded at 2×10^3 cells/well in 96-well plates and allowed to grow for 24 hour. Cells were then exposed to various concentrations of the first drug for 1 hour/24 hours/48 hours, the drug was removed, the cells were washed and the second drug was added. After additional drug exposure, the second drug was removed, the cells were washed and incubated in drug-free medium for 72 hours. Growth inhibition was then determined by the MTT assay.
(§6) Effects of drug combinations were evaluated using the Chou and Talalay method which is based on the median-effect principle (Chou T C, Talalay P. Quantitative analysis of dose-effect relationships: the combined effects of multiple drugs or enzyme inhibitors. Adv Enzyme Regul. 1984; 22:27-55). […] On the basis of the slope of the curve for each drug in a combination, it can be determined whether the drugs have mutually nonexclusive effects (e.g., independent or interactive modes of action).
(§7) The combination index (CI) is then determined by the equation:
(§8) CI=[(C)1/(Cx)1]+[(C)2/(Cx)2]+[α(C)1(C)2/(Cx)1(Cx)2],
(§9) where (Cx)1 is the concentration of drug 1 required to produce an x percent effect of that drug alone, and (C)1, the concentration of drug 1 required to produce the same x percent effect in combination with (C)2. If the mode of action of the drugs is mutually exclusive or nonexclusive, then α is 0 or 1, respectively. CI values will be calculated with this equation using different values of fa (i.e., for different degrees of cell growth inhibition). CI values of <1 indicate synergy, the value of 1 indicates additive effects, and values >1 indicate antagonism. Data were analyzed on an IBM-PC computer using concentration-effect analysis for microcomputer software (Biosoft, Cambridge, UK). For statistical analysis and graphs we will use Instat and Prism software (GraphPad, San Diego, USA). The dose-effect relationships for the drugs tested, alone or in paired combinations, were subjected to median-effect plot analysis to determine their relative potency (IC50), shape (m), and conformity (r) in each selected cell line. As stated above, the IC50 and m values were respectively used to calculate synergism and antagonism on the basis of the CI equation. Results were expressed as the mean±standard deviation of at least 3 experiments performed in duplicate. In each experiment, cells were exposed to the paired combinations for 48 hours as described above. Means and standard deviations were compared using Student's t-test (two-sided p value).
(§10) The effect of sequential and simultaneous exposure (FIG. 2) to CYC682 with oxaliplatin, doxorubicin, docetaxel and gemcitabine was studied in two sensitive colon cancer cell lines—COLO205 and HCT116 using combination indices that represent an affected fraction for the concentration of drugs corresponding to IC50 as previously described by Chou and Talalay.

[16] = tested on: COLO205 cancer cell line; assay: as above; assay type: cell-based, human; conditions: COLO205; named agent given prior to CYC682
Method: as §4, §5, §6, §7, §8, §9, §10

[17] = named agent in combination with CNDAC, H1299, simultaneous treatment 72 h

SMILES: N#C[C@H]1[C@H](O)[C@@H](CO)O[C@H]1n1ccc(N)nc1=O [CNDAC, 1-(2-C-Cyano-2-deoxy-β-D-arabino-pentafuranosyl)-cytosine]
- Cytotoxicity after 24 hour exposure ([1]; 24 hour exposure, panel of cell lines): not sufficient
- IC50 ([2]; HT-29, 48 hours exposure): 160 ± 43 µM
- IC50 ([3]; IGROV-1, 48 hours exposure): 89 ± 12 µM
- IC50 ([4]; COLO 205, 48 hours exposure): 8 ± 2 µM
- IC50 ([5]; 48 hours exposure): 850 ± 60 µM
- IC50 ([6]; HOP-92, 48 hours exposure): 23 ± 6 µM
- IC50 ([7]; HCT-116, 48 hours exposure): 2.8 ± 0.6 µM
- IC50 ([8]; HCC 2998, 48 hours exposure): 110 ± 21 µM
- IC50 ([9]; 48 hours exposure): > 900 µM
- IC50 ([10]; 48 hours exposure): 95 ± 13 µM
- IC50 ([11]; HOP-62, 48 hours exposure): 7 ± 1.8 µM

SMILES: CCCCCCCCCCCCCCCC(=O)Nc1ccn([C@@H]2O[C@H](CO)[C@@H](O)[C@@H]2C#N)c(=O)n1 [CYC682, 2′-cyano-2′-deoxy-N^4-palmitoyl-1-β-D-arabinofuranosylcytosine]
- Anticancer activity in a model of colon cancer ([12]; in vivo): strong anticancer activity
- Increasing survival and preventing spread of colon cancer metastases to the liver, versus gemcitabine or 5-FU ([12]; same colon cancer model): superior
- Antiproliferative activity in panel ([1]; most cancer cell lines): antiproliferative activity at micromolar concentrations
- Dose limiting toxicity [13]: myelosuppression
- Tolerability in humans [13]: well tolerated
- IC50 ([2]; HT-29, 48 hours exposure): 4.5 ± 0.7 µM
- IC50 ([3]; IGROV-1, 48 hours exposure): 6.5 ± 1.6 µM
- IC50 ([4]; COLO 205, 48 hours exposure): 5 ± 0.8 µM
- IC50 ([5]; 48 hours exposure): 7 ± 1.8 µM
- IC50 ([6]; HOP-92, 48 hours exposure): 38 ± 8 µM
- IC50 ([7]; HCT-116, 48 hours exposure): 3 ± 0.6 µM
- IC50 ([8]; HCC 2998, 48 hours exposure): 3.5 ± 0.8 µM
- IC50 ([9]; 48 hours exposure): 45 ± 7 µM
- IC50 ([10]; 48 hours exposure): 67 ± 14 µM
- IC50 ([11]; HOP-62, 48 hours exposure): 6 ± 1.7 µM

SMILES: Nc1ccn([C@@H]2O[C@H](CO)[C@@H](O)C2(F)F)c(=O)n1 [Gemcitabine, 2′-deoxy-2′,2′-difluorocytidine]
- Interaction with CNDAC at ED50 (in words) ([14]; H1299, concomitant treatment): synergy
- Interaction with CNDAC (in words), summary of Table 3 ([14]; combination with CNDAC, regime not specified): synergistic drug interactions
- Combination Index at ED50, Concomitant [14, 17]: 0.65
- Combination Index at ED75, Concomitant [14, 17]: 1.83
- Combination Index at ED90, Concomitant [14, 17]: 6.11
- IC50 ([2]; HT-29, 24 hours exposure): 0.015 ± 0.003 µM
- IC50 ([3]; IGROV-1, 24 hours exposure): 0.02 ± 0.004 µM
- IC50 ([4]; COLO 205, 24 hours exposure): 0.2 ± 0.1 µM
- IC50 ([5]; 24 hours exposure): 0.01 ± 0.002 µM
- IC50 ([6]; HOP-92, 24 hours exposure): 0.02 ± 0.004 µM
- IC50 ([7]; HCT-116, 24 hours exposure): 0.05 ± 0.01 µM
- IC50 ([8]; HCC 2998, 24 hours exposure): 0.01 ± 0.002 µM
- IC50 ([9]; 24 hours exposure): 1.2 ± 0.2 µM
- IC50 ([10]; 24 hours exposure): 0.04 ± 0.008 µM
- IC50 ([11]; HOP-62, 24 hours exposure): 0.01 ± 0.002 µM
- Interaction with CYC682 (isobologram) [15]: synergistic
- Interaction with CYC682 (isobologram) [16]: synergistic
